According to patent US20240228438A1, “SOLID FORMS OF SALTS OF 4-[5-[(3S)-3-AMINOPYRROLIDINE-1-CARBONYL]-2-[2-FLUORO-4-(2- HYDROXY-2-ETHYLPROPYL)PHENYL]PHENYL]-2-FLUORO-BENZONITRILE” (Astex Pharmaceuticals, Inc., priority 2021, published 2024):
Structures can show the parent of a compound that is named as a salt.

What was measured:
[1] = Stability testing: water absorption of salt forms at 40° C. and 75% RH for five days (KF); assay type: physicochemical; settings: for KF water content after 5 days at 40° C./75% RH: open vial covered with Kim wipe; for Initial KF: water content before exposure
Protocol: The stability of different salt forms was tested. The salts were placed in 20-mL scintillation vials and covered with Kim wipe, and the resulting vials were exposed to 40° C. and 75% RH (relative humidity) for five days. The samples were analyzed for water absorption.

[2] = Aqueous solubility of the salt form (overall assessment); assay type: physicochemical; settings: in words

CC(C)(O)Cc1ccc(-c2ccc(C(=O)N3CC[C@H](N)C3)cc2-c2ccc(C#N)c(F)c2)c(F)c1 [hemi-fumarate Form I, 4-[5-[(3S)-3-aminopyrrolidine-1-carbonyl]-2-[2-fluoro-4-(2-hydroxy-2-methylpropyl)phenyl]phenyl]-2-fluoro-benzonitrile hemi fumarate]
KF water content after 5 days at 40° C./75% RH ([1]; five days): 1.57%
hygroscopicity ([1]; overall assessment, in words): slightly hygroscopic
residual water ([1]; overall assessment, in words): low residual water
Initial KF [1]: 0.69%

CC(C)(O)Cc1ccc(-c2ccc(C(=O)N3CC[C@H](N)C3)cc2-c2ccc(C#N)c(F)c2)c(F)c1 [mono-oxalate salt (from IPA)]
KF water content after 5 days at 40° C./75% RH ([1]; five days): 4.99%
Initial KF [1]: 2.66%

CC(C)(O)Cc1ccc(-c2ccc(C(=O)N3CC[C@H](N)C3)cc2-c2ccc(C#N)c(F)c2)c(F)c1 [mono-oxalate (from EtOH) Form II, 4-[5-[(3S)-3-aminopyrrolidine-1-carbonyl]-2-[2-fluoro-4-(2-hydroxy-2-methylpropyl)phenyl]phenyl]-2-fluoro-benzonitrile mono-oxalate]
KF water content after 5 days at 40° C./75% RH ([1]; five days, mono-oxalate): 4.46%
hygroscopicity ([1]; overall assessment, in words): slightly hygroscopic
Initial KF ([1]; mono-oxalate): 1.06%
aqueous solubility [2]: good aqueous solubility

CC(C)(O)Cc1ccc(-c2ccc(C(=O)N3CC[C@H](N)C3)cc2-c2ccc(C#N)c(F)c2)c(F)c1 [mono-fumarate Form VI]
moisture take-up under the tested conditions ([1]; 40° C./75% RH, five days, result in words): did not take-up moisture
KF water content after 5 days at 40° C./75% RH ([1]; five days): 0.63%
Initial KF [1]: 0.61%

CC(C)(O)Cc1ccc(-c2ccc(C(=O)N3CC[C@H](N)C3)cc2-c2ccc(C#N)c(F)c2)c(F)c1 [mesylate Form IIIA, 4-[5-[(3S)-3-aminopyrrolidine-1-carbonyl]-2-[2-fluoro-4-(2-hydroxy-2-methylpropyl)phenyl]phenyl]-2-fluoro-benzonitrile mesylate]
Initial KF ([1]; mesylate): 2.55%

CC(C)(O)Cc1ccc(-c2ccc(C(=O)N3CC[C@H](N)C3)cc2-c2ccc(C#N)c(F)c2)c(F)c1 [maleate Form V, 4-[5-[(3S)-3-aminopyrrolidine-1-carbonyl]-2-[2-fluoro-4-(2-hydroxy-2-methylpropyl)phenyl]phenyl]-2-fluoro-benzonitrile maleate]
Initial KF ([1]; maleate): 1.08%

CC(C)(O)Cc1ccc(-c2ccc(C(=O)N3CC[C@H](N)C3)cc2-c2ccc(C#N)c(F)c2)c(F)c1 [esylate Form IVA, 4-[5-[(3S)-3-aminopyrrolidine-1-carbonyl]-2-[2-fluoro-4-(2-hydroxy-2-methylpropyl)phenyl]phenyl]-2-fluoro-benzonitrile esylate]
Initial KF [1]: 0.76%
